One series in a line: physchem. Particulars: buffer, pH 7.4.
The nature of a further series: in vitro. To be noted: dog, MDCK.
Series [1] can be described thus: in vivo. To be noted: rat, brain, iv, 1 mg/kg.
Series [2] is described as follows: in vivo. Particulars: rat, iv, 1 mg/kg.
Series [3] in a line: in vivo. Particulars: rat, po, 3 mg/kg.
Series [4] can be described thus: in vivo. To be noted: rat, po, 3 mg/kg. This is another data set of the same source.
Series [5] can be described thus: in vivo. To be noted: rat, po, 2 mg/kg.
Series [6] in a line: in vivo. Particulars: rat, po, 2 mg/kg. This is another data set of the same source.
A short description of series [7]: in vivo. Particulars: rat, iv, 0.5 mg/kg.
Series [8] can be described thus: in vivo. To be noted: rat, brain, iv, 0.5 mg/kg.

Compound `Cc1cc(NC(=O)c2ccc(Cl)cc2Cl)n(-c2ccccc2)n1` showed a logD in “physchem” of 3.3. The Papp A→B in the series “in vitro” came to 30 ×10⁻⁶ cm/s.
Consider `NC(=O)c1cc(NC(=O)c2cc(-c3ccccn3)c(F)cc2Cl)n(-c2ccccc2)n1`, for which the logD in “physchem” was found to be 2.7. The apical-to-basolateral permeability (Papp A→B) in the series “in vitro” worked out at 10 ×10⁻⁶ cm/s.
`CC(=O)Nc1cccc(-c2ccc(Cl)c(C(=O)Nc3cc(C(N)=O)nn3-c3ccccc3)c2)n1` yielded a logD in “physchem” of 2.7. For the same compound, the Papp A→B in “in vitro” worked out at 10 ×10⁻⁶ cm/s.
The compound `O=C(NC1COC1)c1cc(NC(=O)c2cc(-c3ccccn3)c(Cl)cc2Cl)n(-c2ccccc2)n1` showed a logD in the series “physchem” of 3. In the series “in vitro”, this compound gave a Papp A→B of 11 ×10⁻⁶ cm/s.
In turn, `NC(=O)c1cc(NC(=O)c2cc(-c3ccccn3)c(Cl)cc2Cl)n(-c2ccccc2)n1` came in with a logD in the series “physchem” of 3. In addition, in the series “in vitro”, the Papp A→B worked out at 17 ×10⁻⁶ cm/s.
Take `CC(C)(O)CNC(=O)c1cc(NC(=O)c2cc(-c3ncccc3F)c(F)cc2Cl)n(-c2ccccc2)n1`: the pH-dependent lipophilicity (logD) in the series “physchem” is 3.1. Besides, in the series “in vitro”, the Papp A→B was 17 ×10⁻⁶ cm/s.
Regarding `COc1cc(Cl)c(C(=O)Nc2cc(C(N)=O)nn2-c2ccccc2)cc1-c1ccccn1`, the logD in the series “physchem” turned out to be 2.4. The Papp A→B in the series “in vitro” was 13 ×10⁻⁶ cm/s.
The corresponding values for `NCCNC(=O)c1cc(NC(=O)c2cc(-c3ccccn3)c(Cl)cc2Cl)n(-c2ccccc2)n1` are 0.94 and 0.72 ×10⁻⁶ cm/s.
Turning to `O=C(NCCO)c1cc(NC(=O)c2cc(-c3ccccn3)c(Cl)cc2Cl)n(-c2ccccc2)n1`, in the series “physchem”, the logD came out at 2.8. Besides, in “in vitro”, the apical-to-basolateral permeability (Papp A→B) was found to be 12 ×10⁻⁶ cm/s.
`NC(=O)c1cc(NC(=O)c2cc(-c3ncccc3F)ccc2Cl)n(-c2ccccc2)n1` came in with a Kp uu at 4 h in “in vivo [1]” of 0.1. This compound came in with a logD in “physchem” of 2.6. The compound further had a Vd in “in vivo [2]” of 0.46 L/kg. Besides, the Tmax in the series “in vivo [3]” was found to be 4 h. The Papp A→B in the series “in vitro” was found to be 19 ×10⁻⁶ cm/s. Moreover, the bioavailability in “in vivo [4]” is 100%.
The compound `Cc1cc(Cl)c(C(=O)Nc2cc(C(N)=O)nn2-c2ccccc2)cc1-c1ccccn1` gave a logD in the series “physchem” of 2.6. In addition, the Papp A→B in the series “in vitro” was found to be 12 ×10⁻⁶ cm/s.
In “physchem”, `NC(=O)c1cc(NC(=O)c2cc(-c3ncccc3F)c(F)cc2Cl)n(-c2ccccc2)n1` came in with a logD of 2.7. Besides, the apical-to-basolateral permeability (Papp A→B) in “in vitro” came to 23 ×10⁻⁶ cm/s.
The corresponding values for `O=C(NCCO)c1cc(NC(=O)c2cc(-c3ccccn3)c(C(F)(F)F)cc2Cl)n(-c2ccccc2)n1` are 3 and 8.5 ×10⁻⁶ cm/s.
Taken in the same sequence, the figures for `NC(=O)c1cc(NC(=O)c2cc(-c3cccc(C(F)F)n3)ccc2Cl)n(-c2ccccc2)n1` were 3.5 and 8.5 ×10⁻⁶ cm/s.
On to `NC(=O)c1cccc(-c2ccc(Cl)c(C(=O)Nc3cc(C(N)=O)nn3-c3ccccc3)c2)n1`, for which the logD in “physchem” stood at 2.3. Moreover, the Papp A→B in “in vitro” was found to be 6.1 ×10⁻⁶ cm/s.
For `NC(=O)c1cc(NC(=O)c2cc(-c3ncccc3Cl)ccc2Cl)n(-c2ccccc2)n1`, the Kp uu at 4 h in “in vivo [1]” is 0.076. Besides, in “physchem”, the pH-dependent lipophilicity (logD) is 2.8. Besides, the distribution volume (Vd) in “in vivo [2]” turned out to be 1.1 L/kg. In the series “in vivo [3]”, the time of peak concentration (Tmax) stood at 0.9 h. Further, the apical-to-basolateral permeability (Papp A→B) in “in vitro” worked out at 14 ×10⁻⁶ cm/s. Moreover, the bioavailability in “in vivo [4]” is 85%.
In the series “physchem”, `NC(=O)c1cc(NC(=O)c2cc(-c3ccccn3)c(OC(F)F)cc2Cl)n(-c2ccccc2)n1` registered a pH-dependent lipophilicity (logD) of 2.7. Also, in “in vitro”, the Papp A→B came to 13 ×10⁻⁶ cm/s.
The compound `O=C(NCCO)c1cc(NC(=O)c2cc(-c3ncccc3F)c(Cl)cc2Cl)n(-c2ccccc2)n1` came in with a logD in the series “physchem” of 2.8. In “in vitro”, this compound came in with an apical-to-basolateral permeability (Papp A→B) of 13 ×10⁻⁶ cm/s.
As for `NC(=O)c1cc(NC(=O)c2cc(-c3ccccn3)c(C3CC3)cc2Cl)n(-c2ccccc2)n1`, the pH-dependent lipophilicity (logD) in the series “physchem” worked out at 3.1.
`CC(C)(O)CNC(=O)c1cc(NC(=O)c2cc(-c3ncccc3F)c(Cl)cc2Cl)n(-c2ccccc2)n1`: the logD in “physchem” came to 3.3. This compound also registered a Papp A→B in the series “in vitro” of 12 ×10⁻⁶ cm/s. This compound also registered a bioavailability in the series “in vivo [5]” of 46%. The Tmax in the series “in vivo [6]” amounted to 3 h. Moreover, in “in vivo [7]”, the distribution volume (Vd) turned out to be 1.6 L/kg. This compound also registered a Kp uu at 4 h in “in vivo [8]” of 0.015.
In the case of `NC(=O)c1cc(NC(=O)c2cc(-c3nc(N)ccc3Cl)ccc2Cl)n(-c2ccccc2)n1`, in the series “physchem”, the logD came to 3.2. In “in vitro”, the apical-to-basolateral permeability (Papp A→B) was 11 ×10⁻⁶ cm/s.
`NC(=O)c1cc(NC(=O)c2cc(-c3cccc(N)n3)c(Cl)cc2Cl)n(-c2ccccc2)n1` registered a pH-dependent lipophilicity (logD) in the series “physchem” of 2.9. In the series “in vitro”, the Papp A→B turned out to be 11 ×10⁻⁶ cm/s.

(Values after ChEMBL document CHEMBL4308832, “Discovery of Allosteric, Potent, Subtype Selective, and Peripherally Restricted TrkA Kinase Inhibitors” (J Med Chem, 2018).)
